51 compounds from patent US10626094B2 (La Jolla Institute of Allergy & Immunology, priority 2014, dated 2020) can be followed below.

Bounds are passed on as bounds.

The target in one test is LMPTP-A (Low Molecular Weight Protein Tyrosine Phosphatase-A) enzyme (Homo sapiens (Human), UniProt P24666). The test is described as follows: LMPTP primary screening / LMPTP (OMFP) enzyme inhibition assay, fluorescence intensity. The settings on record: LMPTP-A, OMFP substrate, method of Example 2; read-out: IC50. The class given is biochemical. The method in brief: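 0.625 nM LMPTP-A with 400 μM OMFP substrate in 50 mM Bis-Tris pH 6.0, 1 mM DTT, 0.01% Triton X-100, […]. Compounds at 20 μM final. Incubated 50 min at room temperature in the dark; fluorescence intensity read.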
Sequence of LMPTP-A (Low Molecular Weight Protein Tyrosine Phosphatase-A) enzyme (P24666 whole entry): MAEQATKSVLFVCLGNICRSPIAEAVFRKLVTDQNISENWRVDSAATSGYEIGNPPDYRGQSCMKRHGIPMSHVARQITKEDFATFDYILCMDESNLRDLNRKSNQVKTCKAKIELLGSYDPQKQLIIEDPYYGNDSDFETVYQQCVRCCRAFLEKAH
Broadly, the IC50 is the concentration that gives 50% inhibition. With `c1csc(-c2cc(NCCCN3CCCCC3)c3ccccc3n2)c1` [Compound G16, (3-Piperidin-1-yl-propyl)-(2-thiophen-2-yl-quinolin-4-yl)-amine], the IC50 fell in the range of 0.801 to 5 µM. With `COC(=O)CNC(=O)c1ccc(-c2cc(NCCCN3CCCCC3)c3ccccc3n2)cc1` [Compound I69], the 50% inhibitory concentration (IC50) lay in the range of 0.801 to 5 µM. The same measure, in the same setting: the figure for `CCN1CCN(Cc2ccc(Nc3cc(-c4ccc(OC)cc4)nc4c3CCCC4)cc2)CC1` [Compound I206, {4-[(4-ethylpiperazinyl)methyl]phenyl}[2-(4-methoxyphenyl)(4-5,6,7,8-tetrahydroquinolyl)]amine] is 0.801 to 5 µM. Regarding `NC(=O)c1ccc(-c2cc(NCc3ccc(CN4CCCCC4)cc3)c3ccccc3n2)cc1` [Compound I213, 4-[4-({[4-(piperidylmethyl)phenyl]methyl}amino)-2-quinolyl]benzamide], the IC50 was above 5 µM. Same read-out and setting: for `COc1ccc(-c2cc(Nc3cccc(CN4CCSCC4)c3)c3ccccc3n2)cc1` [Compound G56, [2-(4-methoxyphenyl)(4-quinolyl)][3-(1,4-thiazaperhydroin-4-ylmethyl)phenyl]amine] the value was 0.2 to 0.8 µM. The same measure, in the same setting: for `CCN(CC)CCCNC(=O)c1ccc(-c2cc(NCCCN3CCCCC3)c3ccccc3n2)cc1` [Compound I190] the value was 0.2 to 0.8 µM; for `Cc1cc(NCCCN2CCCCC2)c2ccccc2n1` [Compound I151], above 5 µM; for `Clc1cc(-c2cc(NCCCN3CCCCC3)c3ccccc3n2)ccn1` [Compound I102], 0.801 to 5 µM. On the same count and under the same terms, the figure for “N-cyclopropyl(4-{4-[(3-piperidylpropyl)amino](2-quinolyl)}phenyl)carboxamide [Compound I70]” is 0.801 to 5 µM; for `O=C(O)CNC(=O)c1ccc(-c2cc(NCCCN3CCCCC3)c3ccccc3n2)cc1` [Compound I68] it is 0.801 to 5 µM. “[2-(3,5-dichlorophenyl)(4-quinolyl)](3-piperidylpropyl)amine [Compound I170]”: the half-maximal inhibitory concentration (IC50) was in the range of 0.801 to 5 µM. Still for that read-out and setting: the figure for `CNC(=O)c1ccc(-c2cc(NCCCN3CCCCC3)c3ccccc3n2)cc1` [Compound I73] is 0.801 to 5 µM; for `CCN1CCC(Cc2cccc(Nc3cc(-c4ccc(OC)cc4)nc4ccccc34)c2)CC1` [Compound I30, {3-[(1-ethyl(4-piperidyl))methyl]phenyl}[2-(4-methoxyphenyl)(4-quinolyl)]amine] it is 0.2 to 0.8 µM; for `c1ccc(-c2cc(NCCN3CCCC3)c3ccccc3n2)cc1` [Compound I181, (2-phenyl(4-quinolyl))(2-pyrrolidinylethyl)amine] it is above 5 µM.

Regarding `Clc1cccc(-c2cc(Nc3cccc(CC4CCNCC4)c3)c3ccccc3n2)c1` [Compound I20, [2-(3-chlorophenyl)(4-quinolyl)][3-(4-piperidylmethyl)phenyl]amine], the half-inhibitory concentration (IC50) lay within 0.801 to 5 µM. The same measure, in the same setting: for `CCN1CCN(Cc2ccc(CNc3cc(-c4ccc(C(N)=O)cc4)nc4ccccc34)cc2)CC1` [Compound I214, 4-{4-[({4-[(4-ethylpiperazinyl)methyl]phenyl}methyl)amino]-2-quinolyl}benzamide] the value was above 5 µM. As to `O=S(=O)(c1ccccc1)n1ccc2cc(-c3cc(NCCCN4CCCCC4)c4ccccc4n3)ccc21` [Compound I260], the IC50 lay in the range of 0.801 to 5 µM. Consider `COc1ccc(-c2cc(NCCCN3CCCCC3)c3ccccc3n2)c(OC)c1` [Compound I174], for which the concentration for half-maximal inhibition (IC50) is 0.801 to 5 µM. Take `COc1ccc(-c2cc(NCCCN3CCCCC3)c3ccc(OC)cc3n2)cc1` [Compound G26, [7-Methoxy-2-(4-methoxy-phenyl)-quinolin-4-yl]-(3-piperidin-1-yl-propyl)-amine]: the IC50 was above 5 µM. On to “N-ethyl-N-methyl(4-{4-[(3-piperidylpropyl)amino](2-quinolyl)}phenyl)carboxamide [Compound I60]”, for which the 50% inhibitory concentration (IC50) was in the range of 0.801 to 5 µM.

In the case of `COc1ccc(-c2cc(Nc3ccccc3C(F)(F)F)c3ccccc3n2)cc1` [Compound G36, [2-(4-Methoxy-phenyl)-quinolin-4-yl]-(2-trifluoromethyl-phenyl)-amine], the IC50 was above 5 µM. On the same count and under the same terms, the figure for `Cc1nc(C)c(-c2cc(N(C)C)c3ccccc3n2)s1` [Compound G21, [2-(2,4-Dimethyl-thiazol-5-yl)-quinolin-4-yl]-dimethyl-amine] is above 5 µM; for `FC(F)(F)Oc1cccc(-c2cc(NCCCN3CCCCC3)c3ccccc3n2)c1` [Compound G3, (3-Piperidin-1-yl-propyl)-[2-(3-trifluoromethoxy-phenyl)-quinolin-4-yl]-amine] it is 0.801 to 5 µM; for `c1ccc2[nH]c(-c3cc(NCCCN4CCCCC4)c4ccccc4n3)cc2c1` [Compound I124] it is above 5 µM. The same measure, in the same setting: the figure for `COc1ccc(-c2cc(Nc3ccc(CC4CCN(S(C)(=O)=O)CC4)cc3)c3ccccc3n2)cc1` [Compound I35, 4-[(4-{[2-(4-methoxyphenyl)(4-quinolyl)]amino}phenyl)methyl]-1-(methylsulfonyl)piperidine] is 0.801 to 5 µM. On to “(2-morpholin-4-ylethyl)(2-phenyl(4-quinolyl))amine [Compound I180]”, for which the IC50 fell in the range of 0.801 to 5 µM. In the case of `O=[N+]([O-])c1ccc(C(F)(F)F)c(-c2cc(NCCCN3CCCCC3)c3ccccc3n2)c1` [Compound I152], the IC50 lay within 0.801 to 5 µM. As for `Fc1ccc(-c2cc(NCCCN3CCCCC3)c3ccccc3n2)cc1` [Compound G8, [2-(4-Fluoro-phenyl)-quinolin-4-yl]-(3-piperidin-1-yl-propyl)-amine], the IC50 lay in the range of 0.801 to 5 µM. On to `c1ccc(-c2ccc(-c3cc(NCCCN4CCCCC4)c4ccccc4n3)cc2)cc1` [Compound I243], for which the IC50 is 0.801 to 5 µM. Same read-out and setting: for `Fc1ccc(-c2ccc(-c3cc(NCCCN4CCCCC4)c4ccccc4n3)cc2)cc1` [Compound I225] the value was 0.801 to 5 µM. In the case of `CCN(C)C(=O)c1ccc(-c2cc(NCCCN3CCCCC3)c3ccccc3n2)cc1` [Compound I266], the IC50 is 0.801 to 5 µM. Still for that read-out and setting: the figure for `c1ccc2c(NCCCC3CCCNC3)cc(-c3ccoc3)nc2c1` (stereo not drawn) [Compound I177, (2-(3-furyl)(4-quinolyl))(3-piperidylpropyl)amine] is 0.801 to 5 µM. Still for that read-out and setting: the figure for `c1ccc2c(NCCCN3CCCCC3)cc(-c3ccc4nc[nH]c4c3)nc2c1` [Compound I111] is 0.801 to 5 µM; for `COc1ccc(-c2cc(NCCCN3CCCCC3)c3cc(C(F)(F)F)ccc3n2)cc1` [Compound G28, [2-(4-Methoxy-phenyl)-6-trifluoromethyl-quinolin-4-yl]-(3-piperidin-1-yl-propyl)-amine] it is above 5 µM. In the case of `CN(C)c1cc(-c2ccco2)nc2ccccc12` [Compound G13, (2-Furan-2-yl-quinolin-4-yl)-dimethyl-amine], the IC50 is above 5 µM. Consider `COc1ccc(-c2cc(Nc3cccc(CN4CCCCC4)c3)c3ccccc3n2)cc1` [Compound G54, [2-(4-methoxyphenyl)(4-quinolyl)][3-(piperidylmethyl)phenyl]amine], for which the 50% inhibitory concentration (IC50) fell in the range of 0.801 to 5 µM.

As for `c1ccc2c(NCCCN3CCCCC3)cc(-c3ccc4c(c3)OCO4)nc2c1` [Compound I167, (2-(2H-benzo[3,4-d]1,3-dioxolen-5-yl)(4-quinolyl))(3-piperidylpropyl)amine], the IC50 lay in the range of 0.801 to 5 µM. Still for that read-out and setting: for `COc1ccc(-c2cc(Nc3cccc(CN4CCNCC4)c3)c3ccccc3n2)cc1` [Compound G59, [2-(4-methoxyphenyl)(4-quinolyl)][3-(piperazinylmethyl)phenyl]amine] the value was 0.801 to 5 µM; for `CCN(CC)Cc1cccc(Nc2cc(-c3ccc(OC)cc3)nc3ccccc23)c1` [Compound G61, (3-Diethylaminomethyl-phenyl)-[2-(4-methoxy-phenyl)-quinolin-4-yl]-amine], 0.801 to 5 µM. The same measure, in the same setting: the figure for `Clc1cccc(-c2cc(NCCCc3cccnc3)c3ccccc3n2)c1` [Compound I202] is 0.801 to 5 µM.

As to `Cc1nc(C)c(-c2cc(NCCCN3CCCCC3)c3ccccc3n2)s1` [Compound G20], the IC50 fell in the range of 0.801 to 5 µM. Still for that read-out and setting: the figure for `CCN(CC)C(=O)c1ccc(-c2cc(NCCCC3CCCNC3)c3ccccc3n2)cc1` (stereo not drawn) [Compound I71, N,N-diethyl(4-{4-[(3-piperidylpropyl)amino](2-quinolyl)}phenyl)carboxamide] is 0.2 to 0.8 µM; for `C[N+]1(C)CCC(Cc2cccc(Nc3cc(-c4cc(C(F)(F)F)cc(C(F)(F)F)c4)nc4ccccc34)c2)CC1` [Compound I51, {3-[(1,1-dimethyl(4-piperidyl))methyl]phenyl} {2-[3,5-bis(trifluoromethyl)phenyl](4-quinolyl)}amine] it is above 5 µM; for `CN(C)c1ccc(-c2cc(N(C)C)c3ccccc3n2)cc1` [Compound G11, [2-(4-Dimethylamino-phenyl)-quinolin-4-yl]-dimethyl-amine] it is above 5 µM.

For `COc1ccc(-c2cc(NC(C)c3ccccc3)c3ccccc3n2)cc1` (stereo not drawn) [Compound G76], the concentration for half-maximal inhibition (IC50) fell in the range of 0.801 to 5 µM. `CN(C)c1cc(-c2ccc(OC(F)(F)F)cc2)nc2ccccc12` [Compound G5, N,N-dimethyl-2-(4-(trifluoromethoxy)phenyl)quinolin-4-amine]: the IC50 was in the range of 0.801 to 5 µM.

Regarding `O=C(O)c1cccc(-c2cc(NCCCN3CCCCC3)c3ccccc3n2)c1` [Compound I128], the concentration for half-maximal inhibition (IC50) is 0.801 to 5 µM. On the same count and under the same terms, for `O=C(Nc1ccc(-c2cc(NCCCN3CCCCC3)c3ccccc3n2)cc1)c1ccccc1` [Compound I57] the value was 0.2 to 0.8 µM; for `COc1ccc(-c2cc(NCc3ccc(Cl)cc3)c3ccccc3n2)cc1` [Compound G74, [(4-chlorophenyl)methyl][2-(4-methoxyphenyl)(4-quinolyl)]amine], 0.801 to 5 µM.

Still in this test, the particulars now being: SAR discussion.
Regarding `CSCCCN1CCCCC1` [Entry 64], the “LMPTP (OMFP) potency in words” value was “inactive”.

The test is the same for the next values; noted with them: Table 1 quinazolinone series; CP sample (cherry pick of DMSO solution from NIH MLSMR); read-out: LMPTP (OMFP) (IC50).
On to `Cc1cccc(-c2nc(NCCCN3CCOCC3)c3ccccc3n2)c1` [Entry 1], for which the IC50 is 7.12 µM.

Staying with this test, now noted: Table 1 quinazolinone series; P sample (purchased from commercial sources); read-out: LMPTP (OMFP) (IC50).
With `Cc1cccc(-c2nc(NCCCN3CCOCC3)c3ccccc3n2)c1` [Entry 1], the IC50 came to 13.5 µM.

The same test, now with this note: initial screening hits (Scheme 4); read-out: IC50.
With `Cc1cccc(-c2nc(NCCCN3CCOCC3)c3ccccc3n2)c1` [Entry 1], the IC50 was determined as 7.12 µM.

The test is the same for the next values; noted with them: read-out: LMPTP (OMFP) IC50.
Consider `Cc1cccc(-c2nc(NCCCN3CCOCC3)c3ccccc3n2)c1` [Entry 1], for which the IC50 worked out at 13.5 µM.
